The test system of assay [1] is small intestine of Beagle dogs. Kind of assay: Myoelectric activity of the small intestine in Beagle dogs (implanted electrodes). As to conditions: Canis lupus familiaris, sc, read-out: threshold dose for stimulating myoelectric activity. Format: in vivo. The protocol:
Monopolar electrodes are implanted on the serosal side of the gut wall along the small intestine of Beagle dogs. From these electrodes, signals are fed into a preamplifier and filtered for the registration of low and high frequency potentials, in order to separate slow waves from spikes. The number of spike bursts occuring in 2 min. periods are determined. From this the following data are extracted: duration of phase I--III, interval between 2 consecutive phase III blocks, and propagation velocity. One or two cycles are recorded prior to drug administration which is done subcutaneously 10-15 min after a Phase III has passed the most distal electrodes. Control experiments are performed routinely by means of solvent administration. In fed dogs, the number of spikes per 30 min. is determined additionally. In this test the compounds of the invention stimulate myoelectric activity at dosages of the order of from about 0.001 to 10 mg/kg s.c.

Assay [2] relates to isolated guinea-pig ileum. Put plainly: Peristaltic reflex in the isolated guinea-pig ileum. To be noted: Cavia porcellus, 0.25 h, 15 min contact, read-out: pEC50 value, stimulatory effect on the peristaltic activity (converted). Format: cell-based. The protocol:
Furthermore, the stimulatory effect on gastrointestinal motility of compounds of the invention is also indicated e.g. by their effects on the peristaltic reflex in the isolated guinea-pig ileum.
Male guinea-pigs, 200-400 g are stunned and bled. Segments of terminal ileum, 4-5 cm long, are removed and suspended as described by Trendelenburg in Arch. Exp. Path. Pharmakol., 81, 55-129 (1917), in a 20 ml organ bath under an initial load of 1 g. The tissue is bathed with a modified Krebs solution (NaCl 118.6; CaCl2 2.7; KCl 4.7; KH2 PO4 1.2; MgSO4 0.1; NaHCO3 25.0; and glucose 5.6 mM), maintained at 37° C. and bubbled with 5% CO2 in oxygen. Peristalsis is elicited for 30 s by increasing the intraluminal pressure from zero by 1 to 4 cm H2 O. Measurements are made of longitudinal muscle responses by using an isotonic force-displacement transducer and of circular muscle activity by employing a pressure transducer. The area under the curve (AUG) of peristaltic contractions is determined and concentration response curves are established by plotting the AUC representing the circular and longitudinal muscle activity. Each preparation is used as its own control, taking the peristaltic activity before the administration of the compounds to be tested as 100%. Compounds to be tested are added to the serosal side and are left in contact with the tissue for 15 min. In this test compounds of the invention have a stimulatory effect on the peristaltic activity at concentrations of the order of from about 10^-10 M to 10^-7 M.

For another assay, the target named is 5HT-1D receptors. Kind of assay: Binding affinity to 5HT-1D receptors (Waeber et al.). To be noted: 5HT-1D receptor binding. The text has this:
Compounds of the invention also have an agonist effect on 5HT-1D receptors. Their binding affinity to 5HT-1D receptors has been determined e.g. according to the method disclosed by C. Waeber et al., Naunyn-Schmiedeberg,s Arch. Pharmacol., 337, 595-601 (1988).

Another assay concerns 5-HT1D receptor. Kind of assay: Contraction of pig anterior cerebral artery segments (5-HT1D mediated). As to conditions: vascular contraction, ketanserin 10^-7 M present. Format: cell-based. The protocol: Anterior cerebral arteries are excised from pig brains obtained from the local slaughterhouse. Circular segments of 3-4 mm length are mounted between two L-shaped metal prongs and placed in temperature-controlled (37° C.) organ baths filled with Krebs solution that is continuously gassed with 5% CO2 in oxygen. Agonist-induced vascular contractions are measured isometrically. In order to measure only 5-HT1D receptor mediated effects, ketanserin (10^-7 M), which prevents contractions via 5-HT2 receptors, is added to the bath solution. Compounds of the invention induce vascular contractions at a concentration of from 10^-10 to 10^-5 M, particularly 10^-9 to 10^-7 M. In this test, it has been determined that compound of Example 63 has a pD2 value of 9.0.

For another assay, the target named is T1, 5-HT4 receptors (Cavia porcellus, UniProt O70528).
T1 construct: The isolated longitudinal muscle of the guinea pig ileum with its adhering myenteric plexus; from tissue; host or cells: guinea pig ileum longitudinal muscle strip with adhering myenteric plexus
T1 sequence (O70528 whole entry): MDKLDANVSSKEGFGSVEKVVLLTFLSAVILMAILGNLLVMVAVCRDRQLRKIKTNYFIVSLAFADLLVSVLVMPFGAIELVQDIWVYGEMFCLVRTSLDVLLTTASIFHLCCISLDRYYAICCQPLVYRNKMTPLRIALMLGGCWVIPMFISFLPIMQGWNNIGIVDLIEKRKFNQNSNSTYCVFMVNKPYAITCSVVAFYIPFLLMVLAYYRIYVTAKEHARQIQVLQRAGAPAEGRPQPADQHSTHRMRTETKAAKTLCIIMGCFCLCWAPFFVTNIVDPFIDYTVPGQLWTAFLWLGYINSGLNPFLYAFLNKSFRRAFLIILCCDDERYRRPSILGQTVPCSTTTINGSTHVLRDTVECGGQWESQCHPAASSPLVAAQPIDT
Kind of assay: Antagonism of 5-HT-induced contraction, longitudinal muscle strip of guinea pig ileum (5-HT4). The class given is cell-based. As to conditions: methysergide 0.1 μM present, read-out: pA2 value (converted). The text has this:
The isolated longitudinal muscle of the guinea pig ileum with its adhering myenteric plexus is a well established model which permits investigations of the mechanism of action of various neurotransmitters.
Male guinea pigs (200-400 g) are killed by a blow on the head and exsanguinated. A length of small intestine is removed about 2 cm from the ileo-caecal valve. The ileum is stretched over a glass rod and the mesentery is carefully removed. By strocking tangentially away from the mesenteric attachment with a wad of cotton wool, the longitudinal muscle layer is separated and stripped from the underlying circular muscle. Longitudinal muscle strips, 3-4cm length, are mounted in a 10 ml organ bath containing Tyrode solution at 37° C. and bubbled with a 5% carbon dioxide in oxygen. The Tyrode solution is of the following composition (mmol/1): NaCl 137.0; CaCl2 1.8; KCl 2.7; MgCl2 1.05; NaHCO3 11.9; NaHPO4 0.4; glucose 5.6; and methysergide 0.1 μM. The strips are maintained under a resting tension of 500 mg. Contractions are recorded with an isotonic pendulum lever. After equilibration for 30 min a set concentration of carbachol is applied in 10 min intervals until a consistent reaction is achieved.
Non-cumulative concentration-response curves for 5-HT are established by adding increasing concentrations of the agonist to the organ bath at intervals of at least 15 min. […] Each concentration is left in contact with the tissue for 1 min. Each strip is only used to record two concentration-response curves; the first for 5-HT alone and the second for 5-HT in the presence of a set concentration of antagonist, each strip thus serving as its own control. Antagonists are allowed to preequilibrate for at least 10 min prior to addition of 5-HT. The contractions expressed as percentage of the maximal response to 5-HT obtained from several preparations are plotted as mean values in order to obtain log-concentration-response curves. Inhibition constants are expressed in the form of pA2 values which are graphically determined according to conventional methods (Arunlakshana et al, 1959, McKay 1978). […]

For the compound `COc1cc(N)c(Cl)cc1C(=O)NC1CCN(CCCOc2ccc(F)cc2)CC1OC` (stereo not shown) [Cisapride, reference compound], the minimal effective dose in assay [1] was 0.3 mg/kg. The EC50 in assay [2] is > 100 nM.

As to `CCCCCNC(=N)NN=Cc1c[nH]c2ccc(OC)cc12` [Example 13], the minimal effective dose in assay [1] turned out to be 0.03 mg/kg. Besides, in assay [2], the EC50 is 1 nM.

For the compound `CCCCCNC(=N)NN=Cc1c[nH]c2ccc(C(N)=O)cc12` [Example 63], the pKD value at 5HT-1D receptors was determined as 8.55. Also, the pD2 value in the assay on 5-HT1D receptor was 9.0.

For `CCCCCNC(=N)NN=Cc1c[nH]c2c(C)cc(O)cc12` [Example 89], the Kb on 5-HT4 receptors was 7.94 nM.

Regarding `CCCCCNC(=N)NN=Cc1cn(CC)c2ccc(O)cc12` [Example 90], the Kb at 5-HT4 receptors was 10 nM.

Consider `CCCCCN(C)C(=N)NN=Cc1c[nH]c2c(C)cc(O)cc12` [Example 97], for which the Kb on 5-HT4 receptors was 5.01 nM.

Consider `CCN(CC)CCNC(=O)c1cc(Cl)c(N)cc1OC` [metoclopramide], for which the EC50 in assay [2] is 2000 nM.

The values above are taken from US5510353A, “Certain aminoguanidine compounds, pharmaceutical compositions containing them and their use in treating gastrointestinal motility disorders and disorders associated with cephalic pain” (Sandoz Ltd., priority 1991, dated 1996).
